Laboratory results from patent publication US12296014B2, “External preparation comprising non-lamellar liquid crystal-forming lipid” (FARNEX INCORPORATED, priority 2018, dated 2025).

How the values were obtained:
[1] = Viscosity of the synthesized amphipathic compound; type: physicochemical; conditions: at shear velocity of 92 l/s
Method: Specifically, the amphipathic compound represented by the general formula (I) has a viscosity of preferably 15.0 Pa-s or less, more preferably 11.0 Pa-s or less, further preferably 6.0 Pa-s or less, by itself, as measured at 25° C. This viscosity can be measured using, for example, a viscosity and viscoelasticity measuring apparatus (Gemini II, Malvern Instruments Ltd.) at a temperature of 25° C.
^1H-NMR and viscosity of the obtained compound were measured.

[2] = cited from earlier work

SMILES	Viscosity [1] [Pa·s]	pKa [2]
CC(=CCCC(=O)OCC(O)CO)CCCC(C)CCCC(C)C (stereo not shown) [Example 1, Mono-O-(5,9,13-trimethyltetradec-4-enoyl)glycerol]	0.48	–
CC(C)=CCC/C(C)=C/CCC(C)=CCCC(=O)OCC(O)CO (racemic) [Example 3, Mono-O-(5,9,13-trimethyltetradeca-4,8,12-trienoyl)glycerol]	0.26	–
CC(C)=CCC/C(C)=C/CC/C(C)=C/CCC(C)=CCCC(=O)OCC(O)CO (racemic) [Example 6, Mono-O-(5,9,13,17-tetramethyloctadeca-4,8,12,16-tetraenoyl)glycerol]	0.37	–
CC1(C)O[C@@H]2C[C@H]3[C@@H]4CCC5=CC(=O)C=C[C@]5(C)[C@@]4(F)[C@@H](O)C[C@]3(C)[C@]2(C(=O)CO)O1 [triamcinolone acetonide]	–	13.37
